How the values were obtained:
morningglory = experiment: Test A morningglory; type: in vivo, Ipomoea spp.; details: 0 to 10 scale where 0 is no effect and 10 is complete control
How it was run: (§1)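 Ratings came from visual comparison with untreated plants about eleven days after treatment, scored 0 for no effect through 10 for complete control. Both soil-drench preemergence and runoff-spray postemergence applications were made at the same time.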

crabgrass = experiment: Test A crabgrass; type: in vivo, Digitaria spp.; details: 0 to 10 scale where 0 is no effect and 10 is complete control
How it was run: as §1

barnyardgrass = experiment: Test A barnyardgrass; type: in vivo, Echinochloa crus-galli; details: 0 to 10 scale where 0 is no effect and 10 is complete control
How it was run: as §1

velvetleaf = experiment: Test A velvetleaf; type: in vivo, Abutilon theophrasti; details: 0 to 10 scale where 0 is no effect and 10 is complete control
How it was run: as §1

dallisgrass = experiment: Test D dallisgrass; type: in vivo, Paspalum dilatatum; details: Preemergence, 0 to 100 scale
How it was run: (§2)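 Scoring used a 0–100 visual injury scale, with 0 meaning no effect and 100 complete control, assessed 14–21 days after application alongside untreated pots. Preemergence treatments went onto sandy loam surfaces of separately potted seeds within a day of sowing.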

guineagrass = experiment: Test D guineagrass; type: in vivo, Panicum maximum; details: Preemergence, 0 to 100 scale
How it was run: as §2

tall mallow = experiment: Test D tall mallow; type: in vivo, Malva sylvestris; details: Preemergence, 0 to 100 scale
Description: (§3) Seeds, tubers, or plant parts of Alexandergrass (Brachiaria plantaginea), bermuda-grass (Cynodon dactylon), common pursiane (Portulaca oleracea), common ragweed (Ambrosia elatior), common groundsel (Senecio vulgaris), dallisgrass (Paspalum dilatatum), goosegrass (Eleusine indica), guineagrass (Panicum maximum), itchgrass (Rottboellia exaltata), Johnson grass (Sorghum halepense), large crabgrass (Digitaria sanguinalis), pitted morningglory (Ipomoea lacunosa), purple nutsedge (Cyperus rotundus), sandbur (Cenchrus echinatus), sourgrass (Trichachne insularis), Spanishneedles (Bidens bipinnata), surinam grass (Brachiaria decumbens) and tall mallow (Malva sylvestris) were planted into greenhouse pots of flats containing greenhouse planting medium. Plant species were grown in separate pots or individual compartments. Preemergence applications were made within one day of planting the seed or plant part.
(§4) Test chemicals were formulated in a non-phytotoxic solvent mixture which included a surfactant and applied preemergence to the surface of the pot containing seeds in a sandy loam soil. Untreated control pots and treated pots were placed in the greenhouse for growth and visually evaluated for injury 14 to 21 days after herbicide application. Plant response ratings, summarized in Table C, are based on a 0 to 100 scale where 0 is no injury and 100 is complete control. A dash (−) response means no test result.

common groundsel = experiment: Test D common groundsel; type: in vivo, Senecio vulgaris; details: Preemergence, 0 to 100 scale
Description: as §3, §4

common ragweed = experiment: Test D common ragweed; type: in vivo, Ambrosia elatior; details: Preemergence, 0 to 100 scale
Description: as §3, §4

pitted morningglory = experiment: Test D pitted morningglory; type: in vivo, Ipomoea lacunosa; details: Preemergence, 0 to 100 scale
How it was run: as §2

common pursiane = experiment: Test D common purslane; type: in vivo, Portulaca oleracea; details: Preemergence, 0 to 100 scale
Description: as §3, §4

goosegrass = experiment: Test D goosegrass; type: in vivo, Eleusine indica; details: Preemergence, 0 to 100 scale
Description: as §3, §4

surinam grass = experiment: Test D surinam grass; type: in vivo, Brachiaria decumbens; details: Preemergence, 0 to 100 scale
Description: as §3, §4

itchgrass = experiment: Test D itchgrass; type: in vivo, Rottboellia exaltata; details: Preemergence, 0 to 100 scale
How it was run: as §2

Johnson grass = experiment: Test D Johnson grass; type: in vivo, Sorghum halepense; details: Preemergence, 0 to 100 scale
How it was run: as §2

Spanishneedles = experiment: Test D Spanishneedles; type: in vivo, Bidens bipinnata; details: Preemergence, 0 to 100 scale
How it was run: as §2

Alexandergrass = experiment: Test D Alexandergrass; type: in vivo, Brachiaria plantaginea; details: Preemergence, 0 to 100 scale
How it was run: as §2

[1] = Rate 32 g/ha, 0 no injury, 100 complete control
[2] = Rate 64 g/ha, 0 no injury, 100 complete control
[3] = Rate 125 g/ha, 0 no injury, 100 complete control
[4] = Rate 16 g/ha, 0 no injury, 100 complete control

CCN(CC)C(=O)n1oc(=O)n(-c2ccc(F)cc2)c1=O [Compound 3]
Plant response rating, Morningglory (morningglory; Postemergence, Rate 1000 g/ha): 0 | Plant response rating, Morningglory (morningglory; Pre-emergence, Rate 2000 g/ha): 0 | Plant response rating, Crabgrass (crabgrass; Postemergence, Rate 1000 g/ha): 0 | Plant response rating, Crabgrass (crabgrass; Pre-emergence, Rate 2000 g/ha): 3 | Plant response rating, Barnyardgrass (barnyardgrass; Postemergence, Rate 1000 g/ha): 6 | Plant response rating, Barnyardgrass (barnyardgrass; Pre-emergence, Rate 2000 g/ha): 9 | Plant response rating, Velvetleaf (velvetleaf; Postemergence, Rate 1000 g/ha): 0 | Plant response rating, Velvetleaf (velvetleaf; Pre-emergence, Rate 2000 g/ha): 0

Cc1ccc(-n2c(=O)on(C(=O)N(c3ccc(F)cc3F)C(C)C)c2=O)c(C)c1 [Compound 24]
Plant response rating, Dallisgrass (dallisgrass; [1]): 30 | Plant response rating, Dallisgrass (dallisgrass; [2]): 30 | Plant response rating, Dallisgrass (dallisgrass; [3]): 98 | Plant response rating, Dallisgrass (dallisgrass; Rate 250 g/ha): 98 | Plant response rating, Dallisgrass (dallisgrass; Rate 500 g/ha): 100 | Plant response rating, Guineagrass (guineagrass; [1]): 60 | Plant response rating, Guineagrass (guineagrass; [2]): 75 | Plant response rating, Guineagrass (guineagrass; [3]): 90 | Plant response rating, Guineagrass (guineagrass; Rate 250 g/ha): 98 | Plant response rating, Guineagrass (guineagrass; Rate 500 g/ha): 100 | Plant response rating, Tall Mallow (tall mallow; [1]): 0 | Tall Mallow plant response rating (tall mallow; [2]): 0 | Tall Mallow plant response rating (tall mallow; [3]): 0 | Plant response rating, Tall Mallow (tall mallow; Rate 250 g/ha): 0 | Plant response rating, Tall Mallow (tall mallow; Rate 500 g/ha): 0 | Plant response rating, Com. groundsel (common groundsel; [1]): 0 | Plant response rating, Com. groundsel (common groundsel; [2]): 0 | Plant response rating, Com. groundsel (common groundsel; [3]): 0 | Plant response rating, Com. groundsel (common groundsel; Rate 250 g/ha): 0 | Plant response rating, Com. groundsel (common groundsel; Rate 500 g/ha): 0 | Plant response rating, C. ragweed (common ragweed; [1]): 0 | Plant response rating, C. ragweed (common ragweed; [2]): 0 | Plant response rating, C. ragweed (common ragweed; [3]): 0 | Plant response rating, C. ragweed (common ragweed; Rate 250 g/ha): 0 | Plant response rating, C. ragweed (common ragweed; Rate 500 g/ha): 0 | Plant response rating, P. morninglory (pitted morningglory; [1]): 0 | Plant response rating, P. morninglory (pitted morningglory; [2]): 0 | Plant response rating, P. morninglory (pitted morningglory; [3]): 0 | Plant response rating, P. morninglory (pitted morningglory; Rate 250 g/ha): 0 | Plant response rating, P. morninglory (pitted morningglory; Rate 500 g/ha): 0 | Plant response rating, C. purslane (common pursiane; [1]): 0 | Plant response rating, C. purslane (common pursiane; [2]): 0 | Plant response rating, C. purslane (common pursiane; [3]): 0 | Plant response rating, C. purslane (common pursiane; Rate 250 g/ha): 0 | Plant response rating, C. purslane (common pursiane; Rate 500 g/ha): 0 | Plant response rating, Goosegrass (goosegrass; [1]): 50 | Plant response rating, Goosegrass (goosegrass; [2]): 50 | Plant response rating, Goosegrass (goosegrass; [3]): 98 | Plant response rating, Goosegrass (goosegrass; Rate 250 g/ha): 98 | Plant response rating, Goosegrass (goosegrass; Rate 500 g/ha): 100 | Plant response rating, Surinam grass (surinam grass; [1]): 10 | Surinam grass plant response rating (surinam grass; [2]): 10 | Surinam grass plant response rating (surinam grass; [3]): 10 | Plant response rating, Surinam grass (surinam grass; Rate 250 g/ha): 10 | Plant response rating, Surinam grass (surinam grass; Rate 500 g/ha): 65 | Plant response rating, Itchgrass (itchgrass; [1]): 40 | Plant response rating, Itchgrass (itchgrass; [2]): 40 | Plant response rating, Itchgrass (itchgrass; [3]): 40 | Plant response rating, Itchgrass (itchgrass; Rate 250 g/ha): 40 | Plant response rating, Itchgrass (itchgrass; Rate 500 g/ha): 40 | Plant response rating, Johnsongrass (Johnson grass; [1]): 0 | Plant response rating, Johnsongrass (Johnson grass; [2]): 0 | Plant response rating, Johnsongrass (Johnson grass; [3]): 0 | Plant response rating, Johnsongrass (Johnson grass; Rate 250 g/ha): 85 | Plant response rating, Johnsongrass (Johnson grass; Rate 500 g/ha): 85 | Plant response rating, Spanishneedles (Spanishneedles; [1]): 0 | Spanishneedles plant response rating (Spanishneedles; [2]): 0 | Spanishneedles plant response rating (Spanishneedles; [3]): 0 | Plant response rating, Spanishneedles (Spanishneedles; Rate 500 g/ha): 0 | Plant response rating, Alexandergrass (Alexandergrass; [1]): 10 | Plant response rating, Alexandergrass (Alexandergrass; [2]): 10 | Plant response rating, Alexandergrass (Alexandergrass; [3]): 10 | Plant response rating, Alexandergrass (Alexandergrass; Rate 250 g/ha): 65 | Plant response rating, Alexandergrass (Alexandergrass; Rate 500 g/ha): 98

CC(C)N(C(=O)n1oc(=O)n(C(C)C)c1=O)c1ccccc1 [Compound 113]
Plant response rating, Dallisgrass (dallisgrass; [4]): 0 | Plant response rating, Dallisgrass (dallisgrass; [1]): 95 | Plant response rating, Dallisgrass (dallisgrass; [2]): 100 | Plant response rating, Dallisgrass (dallisgrass; [3]): 100 | Plant response rating, Guineagrass (guineagrass; [4]): 85 | Plant response rating, Guineagrass (guineagrass; [1]): 100 | Plant response rating, Guineagrass (guineagrass; [2]): 100 | Plant response rating, Guineagrass (guineagrass; [3]): 100 | Plant response rating, Tall Mallow (tall mallow; [4]): 0 | Plant response rating, Tall Mallow (tall mallow; [1]): 0 | Tall Mallow plant response rating (tall mallow; [2]): 0 | Tall Mallow plant response rating (tall mallow; [3]): 30 | Plant response rating, Com. groundsel (common groundsel; [4]): 0 | Plant response rating, Com. groundsel (common groundsel; [1]): 65 | Plant response rating, Com. groundsel (common groundsel; [2]): 100 | Plant response rating, Com. groundsel (common groundsel; [3]): 100 | Plant response rating, C. ragweed (common ragweed; [4]): 0 | Plant response rating, C. ragweed (common ragweed; [1]): 0 | Plant response rating, C. ragweed (common ragweed; [2]): 0 | Plant response rating, C. ragweed (common ragweed; [3]): 0 | Plant response rating, P. morninglory (pitted morningglory; [4]): 10 | Plant response rating, P. morninglory (pitted morningglory; [1]): 10 | Plant response rating, P. morninglory (pitted morningglory; [2]): 10 | Plant response rating, P. morninglory (pitted morningglory; [3]): 10 | Plant response rating, C. purslane (common pursiane; [4]): 0 | Plant response rating, C. purslane (common pursiane; [1]): 0 | Plant response rating, C. purslane (common pursiane; [2]): 0 | Plant response rating, C. purslane (common pursiane; [3]): 0 | Plant response rating, Goosegrass (goosegrass; [4]): 90 | Plant response rating, Goosegrass (goosegrass; [1]): 100 | Plant response rating, Goosegrass (goosegrass; [2]): 100 | Plant response rating, Goosegrass (goosegrass; [3]): 100 | Plant response rating, Surinam grass (surinam grass; [4]): 85 | Plant response rating, Surinam grass (surinam grass; [1]): 90 | Surinam grass plant response rating (surinam grass; [2]): 98 | Surinam grass plant response rating (surinam grass; [3]): 100 | Plant response rating, Itchgrass (itchgrass; [4]): 10 | Plant response rating, Itchgrass (itchgrass; [1]): 40 | Plant response rating, Itchgrass (itchgrass; [2]): 50 | Plant response rating, Itchgrass (itchgrass; [3]): 60 | Plant response rating, Johnsongrass (Johnson grass; [4]): 0 | Plant response rating, Johnsongrass (Johnson grass; [1]): 60 | Plant response rating, Johnsongrass (Johnson grass; [2]): 80 | Plant response rating, Johnsongrass (Johnson grass; [3]): 90 | Plant response rating, Spanishneedles (Spanishneedles; [4]): 0 | Plant response rating, Spanishneedles (Spanishneedles; [1]): 0 | Spanishneedles plant response rating (Spanishneedles; [2]): 0 | Spanishneedles plant response rating (Spanishneedles; [3]): 0 | Plant response rating, Alexandergrass (Alexandergrass; [4]): 65 | Plant response rating, Alexandergrass (Alexandergrass; [1]): 85 | Plant response rating, Alexandergrass (Alexandergrass; [2]): 98 | Plant response rating, Alexandergrass (Alexandergrass; [3]): 98

C=CCn1c(=O)on(C(=O)N(c2ccc(F)cc2F)C2CC2)c1=O [Compound 127]
Plant response rating, Morningglory (morningglory; Postemergence, Rate 1000 g/ha): 0 | Plant response rating, Morningglory (morningglory; Pre-emergence, Rate 2000 g/ha): 0 | Plant response rating, Crabgrass (crabgrass; Postemergence, Rate 1000 g/ha): 7 | Plant response rating, Crabgrass (crabgrass; Pre-emergence, Rate 2000 g/ha): 8 | Plant response rating, Barnyardgrass (barnyardgrass; Postemergence, Rate 1000 g/ha): 6 | Plant response rating, Barnyardgrass (barnyardgrass; Pre-emergence, Rate 2000 g/ha): 9 | Plant response rating, Velvetleaf (velvetleaf; Postemergence, Rate 1000 g/ha): 0 | Plant response rating, Velvetleaf (velvetleaf; Pre-emergence, Rate 2000 g/ha): 0

Source: patent US6737383B1, “Herbicidal oxadiazolidines” (priority 1999, dated 2004)
